Test results reported in the supplement of paper PMC10307832.

Each cell line was assayed with O=C(Nc1cc(C(F)(F)F)cc(C(F)(F)F)c1)c1cc(Cl)ccc1O [IMD-0354] + CCNC(=O)c1noc(-c2cc(C(C)C)c(O)cc2O)c1-c1ccc(CN2CCOCC2)cc1 [Luminespib] (partner 0.01 µM) (assay: relative viability (nuclei count vs DMSO), 5 days (fraction); higher = more cells survive). Conditions: first compound 4 µM.
Method in brief: (§1)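 Lung cancer cell lines were pin-tool dosed in 1536-well plates on the day after seeding, with either a lone drug or a fixed anchor-drug dose plus five library-drug doses (not always all listed) in √10 steps. Nuclei were counted on 4× images after 5 days. Relative viability is the ratio of treated-well to vehicle-well nuclei counts, with each value a median of duplicate plates.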

First: NCI-H2347
Second: SW 1573
The relative viability of the first is higher: 0.267 for the first, 0.127 for the second.

In the case of NCI-H1793, the relative viability is reported as 0.175.

The cell lines below were run with O=C(Nc1cc(C(F)(F)F)cc(C(F)(F)F)c1)c1cc(Cl)ccc1O [IMD-0354] + CC(=O)Nc1cccc(-n2c(=O)n(C3CC3)c(=O)c3c(Nc4ccc(I)cc4F)n(C)c(=O)c(C)c32)c1 [Trametinib] (partner 0.02 µM) in the same assay as above. Conditions: first compound 0.04 µM.
Method in brief: as §1

Compared with LCLC-103H, NCI-H520 is lower in relative viability: 0.703 for the first, 0.687 for the second.

Compared with NCI-H2126, EMC-BAC-2 is higher in relative viability: 0.591 for the first, 0.918 for the second.

First: NCI-H2085
Second: NCI-H1666
The relative viability of the first is lower: 0.559 for the first, 0.738 for the second.

Compared with NCI-H596, NCI-H1395 is higher in relative viability: 0.843 for the first, 1.07 for the second.

First: NCI-H2087
Second: LK-2
The relative viability of the first is lower: 0.18 for the first, 0.831 for the second.

Compared with H3255, COR-L23 is higher in relative viability: 0.612 for the first, 0.64 for the second.

Compared with COR-L 105, LOU-NH91 is higher in relative viability: 0.435 for the first, 0.824 for the second.

First: NCI-H358
Second: NCI-H2405
The relative viability of the first is lower: 0.116 for the first, 0.753 for the second.

Compared with HOP-62, HCC-44 is higher in relative viability: 0.405 for the first, 1.09 for the second.

Going from LU99A to BEN, the relative viability rises from 0.434 to 1.07.

Compared with HARA, NCI-H322M is lower in relative viability: 0.772 for the first, 0.567 for the second.

First: LCLC-97TM1
Second: NCI-H2009
The relative viability of the first is lower: 0.186 for the first, 0.312 for the second.

First: A-427
Second: NCI-H441
The relative viability of the first is higher: 0.878 for the first, 0.528 for the second.

Compared with NCI-H661, NCI-H1734 is higher in relative viability: 0.532 for the first, 0.713 for the second.

First: NCI-H460
Second: NCI-H2347
The relative viability of the first is lower: 0.196 for the first, 0.279 for the second.

Going from SW 1573 to NCI-H1793, the relative viability falls from 0.631 to 0.346.

Same assay, conditions: first compound 0.1265 µM

Going from LCLC-103H to NCI-H520, the relative viability rises from 0.703 to 0.725.

Compared with NCI-H2126, EMC-BAC-2 is higher in relative viability: 0.558 for the first, 0.933 for the second.

Compared with NCI-H2085, NCI-H1666 is higher in relative viability: 0.477 for the first, 0.849 for the second.

Compared with NCI-H596, NCI-H1395 is higher in relative viability: 0.649 for the first, 1.04 for the second.

Going from NCI-H2087 to LK-2, the relative viability rises from 0.183 to 0.669.

First: H3255
Second: COR-L23
The relative viability of the first is higher: 0.664 for the first, 0.576 for the second.

Going from COR-L 105 to LOU-NH91, the relative viability rises from 0.448 to 0.675.

Compared with NCI-H358, NCI-H2405 is higher in relative viability: 0.128 for the first, 0.625 for the second.

Compared with HOP-62, HCC-44 is higher in relative viability: 0.394 for the first, 1.14 for the second.

First: LU99A
Second: BEN
The relative viability of the first is lower: 0.475 for the first, 0.853 for the second.

Compared with HARA, NCI-H322M is higher in relative viability: 0.517 for the first, 0.622 for the second.

Compared with LCLC-97TM1, NCI-H2009 is higher in relative viability: 0.178 for the first, 0.298 for the second.

Compared with A-427, NCI-H441 is lower in relative viability: 0.73 for the first, 0.543 for the second.

Going from NCI-H661 to NCI-H1734, the relative viability rises from 0.512 to 0.703.

First: NCI-H460
Second: NCI-H2347
The relative viability of the first is lower: 0.173 for the first, 0.296 for the second.

Going from SW 1573 to NCI-H1793, the relative viability falls from 0.554 to 0.442.

Same assay, conditions: first compound 0.4 µM

First: LCLC-103H
Second: NCI-H520
The relative viability of the first is lower: 0.521 for the first, 0.522 for the second.

Going from NCI-H2126 to EMC-BAC-2, the relative viability rises from 0.491 to 0.584.

First: NCI-H2085
Second: NCI-H1666
The relative viability of the first is lower: 0.471 for the first, 0.719 for the second.

First: NCI-H596
Second: NCI-H1395
The relative viability of the first is lower: 0.639 for the first, 1.01 for the second.

First: NCI-H2087
Second: H3255
The relative viability of the first is lower: 0.125 for the first, 0.472 for the second.

First: COR-L23
Second: COR-L 105
The relative viability of the first is higher: 0.458 for the first, 0.455 for the second.

First: LOU-NH91
Second: NCI-H358
The relative viability of the first is higher: 0.406 for the first, 0.14 for the second.

Going from NCI-H2405 to HOP-62, the relative viability falls from 0.518 to 0.403.

Going from HCC-44 to LU99A, the relative viability falls from 0.973 to 0.442.

First: BEN
Second: HARA
The relative viability of the first is higher: 0.814 for the first, 0.632 for the second.

Going from NCI-H322M to LCLC-97TM1, the relative viability falls from 0.483 to 0.141.

First: NCI-H2009
Second: A-427
The relative viability of the first is lower: 0.249 for the first, 0.636 for the second.

Going from NCI-H441 to NCI-H661, the relative viability rises from 0.359 to 0.397.

First: NCI-H1734
Second: NCI-H460
The relative viability of the first is higher: 0.483 for the first, 0.0878 for the second.

First: NCI-H2347
Second: SW 1573
The relative viability of the first is lower: 0.227 for the first, 0.384 for the second.

NCI-H1793 was tested, and the relative viability was 0.283.

Same assay, conditions: first compound 1.265 µM

Going from LCLC-103H to NCI-H520, the relative viability falls from 0.602 to 0.143.

Compared with NCI-H2126, NCI-H2085 is lower in relative viability: 0.644 for the first, 0.25 for the second.

First: NCI-H1666
Second: NCI-H596
The relative viability of the first is higher: 0.872 for the first, 0.659 for the second.

Going from NCI-H1395 to NCI-H2087, the relative viability falls from 0.453 to 0.097.

Compared with LK-2, H3255 is lower in relative viability: 0.874 for the first, 0.49 for the second.

First: COR-L23
Second: COR-L 105
The relative viability of the first is lower: 0.118 for the first, 0.342 for the second.

First: LOU-NH91
Second: NCI-H358
The relative viability of the first is higher: 0.177 for the first, 0.134 for the second.

Compared with NCI-H2405, HOP-62 is higher in relative viability: 0.283 for the first, 0.42 for the second.

First: HCC-44
Second: LU99A
The relative viability of the first is higher: 1.04 for the first, 0.505 for the second.

Going from BEN to HARA, the relative viability falls from 0.472 to 0.225.

Going from NCI-H322M to LCLC-97TM1, the relative viability falls from 0.388 to 0.214.

Compared with NCI-H2009, A-427 is higher in relative viability: 0.129 for the first, 0.176 for the second.

First: NCI-H441
Second: NCI-H661
The relative viability of the first is lower: 0.164 for the first, 0.308 for the second.

First: NCI-H1734
Second: NCI-H460
The relative viability of the first is higher: 0.366 for the first, 0.0353 for the second.

First: NCI-H2347
Second: SW 1573
The relative viability of the first is higher: 0.27 for the first, 0.107 for the second.

With NCI-H1793 the relative viability was 0.211.

Same assay, conditions: first compound 4 µM

Compared with LCLC-103H, NCI-H520 is lower in relative viability: 0.315 for the first, 0.149 for the second.

Compared with NCI-H2126, EMC-BAC-2 is lower in relative viability: 0.31 for the first, 0.3 for the second.

Going from NCI-H2085 to NCI-H1666, the relative viability rises from 0.27 to 0.523.

Compared with NCI-H596, NCI-H1395 is lower in relative viability: 0.512 for the first, 0.388 for the second.

Compared with NCI-H2087, LK-2 is higher in relative viability: 0.116 for the first, 0.255 for the second.

Going from H3255 to COR-L23, the relative viability falls from 0.311 to 0.163.

Going from COR-L 105 to LOU-NH91, the relative viability falls from 0.318 to 0.239.

First: NCI-H358
Second: NCI-H2405
The relative viability of the first is lower: 0.102 for the first, 0.277 for the second.

Compared with HOP-62, HCC-44 is higher in relative viability: 0.17 for the first, 0.319 for the second.

Compared with LU99A, BEN is higher in relative viability: 0.206 for the first, 0.401 for the second.

Compared with HARA, NCI-H322M is higher in relative viability: 0.262 for the first, 0.426 for the second.

Compared with LCLC-97TM1, NCI-H2009 is higher in relative viability: 0.113 for the first, 0.154 for the second.

Going from A-427 to NCI-H441, the relative viability rises from 0.162 to 0.191.

Compared with NCI-H661, NCI-H1734 is lower in relative viability: 0.256 for the first, 0.209 for the second.
